According to the supplement of paper PMC10307832:

Assays:
Experiment in all cases: relative viability (nuclei count vs DMSO), 5 days (fraction); higher = more cells survive
IDH-C35 + Vorinostat = compound: Cc1ccccc1C(C(=O)NC1CCCCC1)N(C(=O)Cn1ccnc1C)c1cccc(F)c1 [IDH-C35] + O=C(CCCCCCC(=O)Nc1ccccc1)NO [Vorinostat] (partner 1 µM)
In short: (§1)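 Relative viability equals treated-well nuclei counts divided by vehicle-well nuclei counts. Counts came from 4× images of lung cancer cell lines grown in 1536-well plates for 5 days after pin-tool dosing on the day after seeding. Dosing used one drug alone or a fixed anchor-drug dose plus five library-drug doses (not always all listed) in √10 steps, and values are medians of duplicate plates.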

[1] = compound: CC1=C(C(=NN1)C)CC2=C(C3=C(S2)N(C(=O)N(C3=O)C)CC(C)C)C(=O)N4C[C@@H](CO4)O + N=C(N)NC(=N)NCCc1ccccc1 [Phenformin] (partner 250 µM)
In short: as §1

IDH-C35 + Lapatinib = compound: Cc1ccccc1C(C(=O)NC1CCCCC1)N(C(=O)Cn1ccnc1C)c1cccc(F)c1 [IDH-C35] + CS(=O)(=O)CCNCc1ccc(-c2ccc3ncnc(Nc4ccc(OCc5cccc(F)c5)c(Cl)c4)c3c2)o1 [Lapatinib] (partner 2 µM)
In short: as §1

[2] = compound: CC1=C(C(=NN1)C)CC2=C(C3=C(S2)N(C(=O)N(C3=O)C)CC(C)C)C(=O)N4C[C@@H](CO4)O + O=C(CCCCCCC(=O)Nc1ccccc1)NO [Vorinostat] (partner 1 µM)
In short: as §1

Row | Cell Line | relative viability (IDH-C35 + Vorinostat; first compound 0.08 µM) | relative viability (IDH-C35 + Vorinostat; first compound 0.253 µM) | relative viability (IDH-C35 + Vorinostat; first compound 0.8 µM) | relative viability (IDH-C35 + Vorinostat; first compound 2.53 µM) | relative viability (IDH-C35 + Vorinostat; first compound 8 µM) | relative viability ([1]; first compound 0.0025 µM) | relative viability ([1]; first compound 0.007906 µM) | relative viability ([1]; first compound 0.025 µM) | relative viability ([1]; first compound 0.07906 µM) | relative viability ([1]; first compound 0.25 µM) | relative viability (IDH-C35 + Lapatinib; first compound 0.08 µM) | relative viability (IDH-C35 + Lapatinib; first compound 0.253 µM) | relative viability (IDH-C35 + Lapatinib; first compound 0.8 µM) | relative viability (IDH-C35 + Lapatinib; first compound 2.53 µM) | relative viability (IDH-C35 + Lapatinib; first compound 8 µM) | relative viability ([2]; first compound 0.0025 µM) | relative viability ([2]; first compound 0.007906 µM) | relative viability ([2]; first compound 0.025 µM) | relative viability ([2]; first compound 0.07906 µM) | relative viability ([2]; first compound 0.25 µM)
1 | NCI-H1793 | 0.784 | 0.82 | 0.773 | 0.913 | 0.881 | 0.211 | 0.213 | 0.138 | 0.138 | 0.135 | 0.652 | 0.648 | 0.833 | 0.674 | 0.652 | 0.72 | 0.959 | 0.757 | 0.733 | 0.747
2 | NCI-H2023 | 0.667 | 0.799 | 0.68 | 0.634 | 0.636 | 0.382 | 0.437 | 0.361 | 0.431 | 0.412 | 0.938 | 0.921 | 0.83 | 0.263 | 0.808 | 0.621 | 0.797 | 0.645 | 0.545 | 0.636
3 | COR-L 105 | 0.932 | 0.959 | 0.722 | 0.803 | 0.688 | 0.34 | 0.324 | 0.231 | 0.279 | 0.244 | 0.33 | 0.359 | 0.337 | 0.34 | 0.369 | 0.89 | 0.918 | 0.374 | 0.86 | 0.744
4 | RERF-LC-KJ | 0.655 | 0.636 | 0.698 | 0.718 | 0.754 | 0.434 | 0.46 | 0.431 | 0.428 | 0.481 | 0.939 | 0.856 | 0.91 | 0.802 | 0.773 | 0.738 | 0.814 | 0.66 | 0.696 | 0.767
5 | LXF-289 | 0.768 | 0.787 | 0.86 | 0.62 | 0.799 | 0.525 | 0.52 | 0.532 | 0.537 | 0.556 | 0.9 | 0.893 | 0.91 | 0.965 | 0.877 | 0.881 | 0.748 | 0.829 | 0.671 | 0.762
6 | PC-14 | 0.749 | 0.81 | 0.748 | 0.76 | 0.649 | 0.548 | 0.585 | 0.317 | 0.586 | 0.74 | 0.361 | 0.304 | 0.316 | 0.363 | 0.423 | 0.824 | 0.885 | 0.692 | 0.824 | 0.982
7 | NCI-H650 | 0.413 | 0.434 | 0.515 | – | 0.505 | 0.499 | 0.431 | 0.4 | 0.458 | 0.472 | 0.588 | 0.824 | 0.85 | – | 0.884 | 0.549 | 0.516 | 0.393 | 0.35 | 0.545
8 | NCI-H1666 | 1.04 | 0.997 | 1.08 | 1.04 | 0.971 | 0.571 | 0.621 | 0.548 | 0.538 | 0.593 | 0.599 | 0.523 | 0.481 | 0.736 | 0.605 | 1.08 | 1.12 | 1.03 | 1.04 | 1.05
9 | NCI-H2085 | 0.88 | 0.784 | 0.81 | 0.86 | 0.719 | 0.677 | 0.674 | 0.589 | 0.571 | 0.44 | 0.834 | 0.741 | 0.764 | 0.848 | 0.728 | 0.829 | 0.791 | 0.78 | 0.797 | 0.514
10 | NCI-H1734 | 0.712 | 0.846 | 0.83 | 0.826 | 0.815 | 0.349 | 0.218 | 0.168 | 0.164 | 0.156 | 1.05 | 1.18 | 1.06 | 0.94 | 1.02 | 0.88 | 0.868 | 0.768 | 0.745 | 0.76
11 | NCI-H2126 | 0.683 | 0.806 | 0.698 | 0.5 | 0.61 | 0.583 | 0.526 | 0.523 | 0.529 | 0.585 | 0.77 | 0.77 | 0.705 | 0.777 | 0.739 | 0.919 | 0.894 | 0.844 | 0.84 | 0.674
12 | EMC-BAC-2 | 0.474 | 0.464 | 0.47 | 0.528 | 0.542 | 0.538 | 0.548 | 0.518 | 0.478 | 0.601 | 0.916 | 0.86 | 0.868 | 0.895 | 0.955 | 0.487 | 0.513 | 0.386 | 0.565 | 0.538
13 | NCI-H1993 | 0.726 | 0.717 | 0.77 | 1.08 | 0.897 | 0.495 | 0.416 | 0.457 | 0.433 | 0.436 | 0.858 | 0.763 | 0.79 | 0.795 | 0.92 | 1.03 | 0.664 | 0.685 | 0.623 | 0.711
14 | NCI-H520 | 0.68 | 0.728 | 0.899 | 0.669 | 0.699 | 0.501 | 0.167 | 0.192 | 0.179 | 0.198 | 0.895 | 0.979 | 0.765 | 0.884 | 0.914 | 0.678 | 0.777 | 0.594 | 0.577 | 0.684
15 | NCI-H647 | 0.541 | 0.565 | 0.577 | 0.769 | 0.528 | 0.655 | 0.369 | 0.393 | 0.555 | 0.53 | 1.01 | 1.08 | 0.999 | 1.09 | 0.86 | 0.564 | 0.744 | 0.473 | 0.617 | 0.606
